Columns and labels:
Format in all cases: physicochemical
[1] = Particle size (Malvern MS2000); design: unit not given here; conditions: particle size distribution, 0.1% SPAN 85 in hexane, sonication 10 seconds, unit μm
Excerpt: Particle size data was acquired using a Malvern Instruments MS2000 equipped with a Hydro2000 μP dispersion unit. Data was collected and analyzed with Mastersizer 2000 v. 5.1 software, using volume based measurements. NIST traceable glass beads were used as the reference standard. […] Model: general purpose; Sensitivity: normal.

[2] = Stability and hygroscopy of crystalline Form B compared to crystalline Form A; conditions: as compared to crystalline Form A
[3] = Bulk and tapped density
Excerpt: Samples were submitted to Particle Technology Labs (PTL), Downers Grove, Ill., for bulk and tapped density analyses.

[4] = BET surface area (nitrogen absorption); conditions: 11-point BET, outgassed at 40° C. under vacuum
Description: Surface area data were collected using nitrogen absorption on a BET Micrometics Gemini V (11-point BET analysis) analyzer. The samples were outgassed at 40° C. under vacuum for at least 2 hours. SRM 1899 and SRM 1900 were used as the calibration standards.

[5] = Moisture absorption/desorption (DVS); conditions: for Weight gain from 5-55% RH / Weight gain from 55-95% RH: DVS adsorption phase; for Weight gain from 55-95% RH: samples did not reach equilibration; for Weight loss from 95-5% RH: DVS desorption phase; for Weight loss at 5% RH: DVS, upon equilibration to 5% RH
Description: Moisture absorption/desorption (DVS) data was collected on a VTI SGA-100 Vapor Sorption Analyzer. Absorption and desorption data were collected over a range of 5% to 95% relative humidity (RH) at 10% RH intervals under a nitrogen purge. Samples were not dried prior to analyses. Equilibrium criteria used for analyses were less than 0.0100% weight change in 5 minutes, with a maximum equilibrium time of 3 hours if the weight criterion was not met. Data were not corrected for the initial moisture content of the samples. NaCl and PVP were used as calibration standards.

CS(=O)(=O)O.CS(=O)(=O)O.CS(=O)(=O)O.NCCCC(=O)OCCN1CCN(CCCN2c3ccccc3Sc3ccc(Cl)cc32)CC1 [BL-1020 MSA salt crystalline Form B, perphenazine 4-aminobutyrate trimesylate]
d10 ([1]; listed as 01BIL02-01-22): 2.1
d50 ([1]; listed as 01BIL02-01-22): 5.8
d90 ([1]; listed as 01BIL02-01-22): 18.3
d10 ([1]; listed as 01BIL02-02-22): 2.1
d50 ([1]; listed as 01BIL02-02-22): 6.1
d90 ([1]; listed as 01BIL02-02-22): 22.5
d10 ([1]; listed as 01BIL02-03-22): 2.1
d50 ([1]; listed as 01BIL02-03-22): 6.2
d90 ([1]; listed as 01BIL02-03-22): 19.7
d10 ([1]; listed as 01BIL02-04-22): 2.3
d50 ([1]; listed as 01BIL02-04-22): 6.8
d90 ([1]; listed as 01BIL02-04-22): 21.8
d10 ([1]; listed as 06-01915-3): 3.8
d50 ([1]; listed as 06-01915-3): 9.3
d90 ([1]; listed as 06-01915-3): 41.8
Hygroscopy [2]: reduced hygroscopy
Stability [2]: higher stability
Bulk density ([3]; listed as 01BIL02-01-22): 0.16 g/mL
Tapped density ([3]; listed as 01BIL02-01-22): 0.25 g/mL
Bulk density ([3]; listed as 01BIL02-02-22): 0.16 g/mL
Tapped density ([3]; listed as 01BIL02-02-22): 0.24 g/mL
Bulk density ([3]; listed as 01BIL02-03-22): 0.18 g/mL
Tapped density ([3]; listed as 01BIL02-03-22): 0.26 g/mL
Bulk density ([3]; listed as 01BIL02-04-22): 0.13 g/mL
Tapped density ([3]; listed as 01BIL02-04-22): 0.22 g/mL
Bulk density ([3]; listed as 06-01915-3): 0.18 g/mL
Tapped density ([3]; listed as 06-01915-3): 0.24 g/mL
BET surface area ([4]; listed as 01BIL02-01-22): 4.77 m^2/g
BET surface area ([4]; listed as 01BIL02-02-22): 4.55 m^2/g
BET surface area ([4]; listed as 01BIL02-03-22): 4.93 m^2/g
BET surface area ([4]; listed as 01BIL02-04-22): 4.57 m^2/g
BET surface area ([4]; listed as 01BIL02-05-26): 2.67 m^2/g
BET surface area ([4]; listed as 06-01915-3): 4.84 m^2/g
Weight gain from 5-55% RH ([5]; listed as 01BIL02-01-22): 0.4%
Weight gain from 5-55% RH ([5]; listed as 01BIL02-02-22): 0.4%
Weight gain from 5-55% RH ([5]; listed as 01BIL02-03-22): 0.4%
Weight gain from 5-55% RH ([5]; listed as 01BIL02-04-22): 0.4%
Weight gain from 5-55% RH ([5]; listed as 01BIL02-05-26): 0.4%
Weight gain from 5-55% RH ([5]; listed as 06-01915-3): 0.6%
Weight gain from 55-95% RH ([5]; listed as 01BIL02-01-22): 71.6%
Weight gain from 55-95% RH ([5]; listed as 01BIL02-02-22): 69.8%
Weight gain from 55-95% RH ([5]; listed as 01BIL02-03-22): 72.7%
Weight gain from 55-95% RH ([5]; listed as 01BIL02-04-22): 70.5%
Weight gain from 55-95% RH ([5]; listed as 01BIL02-05-26): 68.9%
Weight gain from 55-95% RH ([5]; listed as 06-01915-3): 71.6%
Weight loss from 95-5% RH ([5]; listed as 01BIL02-01-22): 67.0%
Weight loss from 95-5% RH ([5]; listed as 01BIL02-02-22): 64.8%
Weight loss from 95-5% RH ([5]; listed as 01BIL02-03-22): 67.6%
Weight loss from 95-5% RH ([5]; listed as 01BIL02-04-22): 66.0%
Weight loss from 95-5% RH ([5]; listed as 01BIL02-05-26): 64.8%
Weight loss from 95-5% RH ([5]; listed as 06-01915-3): 66.9%
Weight loss at 5% RH ([5]; listed as 01BIL02-01-22): 0.1%
Weight loss at 5% RH ([5]; listed as 01BIL02-02-22): 0.1%
Weight loss at 5% RH ([5]; listed as 01BIL02-03-22): 0.1%
Weight loss at 5% RH ([5]; listed as 01BIL02-04-22): 0.1%
Weight loss at 5% RH ([5]; listed as 01BIL02-05-26): 0.3%
Weight loss at 5% RH ([5]; listed as 06-01915-3): 0.6%

From patent publication US8377929B2, “Crystalline forms of the tri-mesylate salt of perphenazine-GABA and process of producing the same” (Ramot at Tel-Aviv University Ltd., priority 2010, dated 2013)
